Here are results for 20 molecules from patent US20180099931A1 (AbbVie S.à.r.l., priority 2016, published 2018).

In this test the target is T1, F508delCFTR (Homo sapiens, UniProt P13569, DEL508-508).
T1 construct: expressed in transfected cells; host or cells: CFBE41o- human lung-derived epithelial cells (CFBE4lo-F508delCFTR-HRP), doxycycline-inducible
The test is described as follows: Cell Surface Expression-Horse Radish Peroxidase (CSE-HRP) Assay.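 As to Maximum % activity (with co-corrector): co-corrector and positive control are both the same reference corrector at 2 µM.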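 As to Maximum % activity (without co-corrector): percent of the 2 µM on-plate positive control corrector response above DMSO.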 The test is classed as cell-based. To be noted: for Maximum % activity (with co-corrector) / Emax: maximum at any tested concentration, normalized to on-plate positive control; for Emax: read-out: Maximum % activity (without co-corrector).

Setting [1] is: CSE-HRP, test compound without co-corrector, read-out: EC50 (without co-corrector).
[2] abbreviates: CSE-HRP, with co-corrector (2 μM of 3-[(2R,4R)-4-({[1-(2,2-difluoro-1,3-benzodioxol-5-yl)cyclopropyl]carbonyl}amino)-7-methoxy-3,4-dihydro-2H-chromen-2-yl]benzoic acid), read-out: EC50 (with co-corrector).
Where [3] appears, read: CSE-HRP, with co-corrector (2 μM).
[4] abbreviates: test compound without co-corrector, read-out: EC50 (without co-corrector).
The mark [5] stands for this setting: with co-corrector (2 μM of 3-[(2R,4R)-4-({[1-(2,2-difluoro-1,3-benzodioxol-5-yl)cyclopropyl]carbonyl}amino)-7-methoxy-3,4-dihydro-2H-chromen-2-yl]benzoic acid), read-out: EC50 (with co-corrector).
Where [6] appears, read: test compound without co-corrector.
The mark [7] stands for this setting: with co-corrector (2 μM of 3-[(2R,4R)-4-({[1-(2,2-difluoro-1,3-benzodioxol-5-yl)cyclopropyl]carbonyl}amino)-7-methoxy-3,4-dihydro-2H-chromen-2-yl]benzoic acid).

Read-outs that look alike come from different tables or passages of the source.

T1 sequence (P13569 with tags, fused parts or gaps DEL508-508): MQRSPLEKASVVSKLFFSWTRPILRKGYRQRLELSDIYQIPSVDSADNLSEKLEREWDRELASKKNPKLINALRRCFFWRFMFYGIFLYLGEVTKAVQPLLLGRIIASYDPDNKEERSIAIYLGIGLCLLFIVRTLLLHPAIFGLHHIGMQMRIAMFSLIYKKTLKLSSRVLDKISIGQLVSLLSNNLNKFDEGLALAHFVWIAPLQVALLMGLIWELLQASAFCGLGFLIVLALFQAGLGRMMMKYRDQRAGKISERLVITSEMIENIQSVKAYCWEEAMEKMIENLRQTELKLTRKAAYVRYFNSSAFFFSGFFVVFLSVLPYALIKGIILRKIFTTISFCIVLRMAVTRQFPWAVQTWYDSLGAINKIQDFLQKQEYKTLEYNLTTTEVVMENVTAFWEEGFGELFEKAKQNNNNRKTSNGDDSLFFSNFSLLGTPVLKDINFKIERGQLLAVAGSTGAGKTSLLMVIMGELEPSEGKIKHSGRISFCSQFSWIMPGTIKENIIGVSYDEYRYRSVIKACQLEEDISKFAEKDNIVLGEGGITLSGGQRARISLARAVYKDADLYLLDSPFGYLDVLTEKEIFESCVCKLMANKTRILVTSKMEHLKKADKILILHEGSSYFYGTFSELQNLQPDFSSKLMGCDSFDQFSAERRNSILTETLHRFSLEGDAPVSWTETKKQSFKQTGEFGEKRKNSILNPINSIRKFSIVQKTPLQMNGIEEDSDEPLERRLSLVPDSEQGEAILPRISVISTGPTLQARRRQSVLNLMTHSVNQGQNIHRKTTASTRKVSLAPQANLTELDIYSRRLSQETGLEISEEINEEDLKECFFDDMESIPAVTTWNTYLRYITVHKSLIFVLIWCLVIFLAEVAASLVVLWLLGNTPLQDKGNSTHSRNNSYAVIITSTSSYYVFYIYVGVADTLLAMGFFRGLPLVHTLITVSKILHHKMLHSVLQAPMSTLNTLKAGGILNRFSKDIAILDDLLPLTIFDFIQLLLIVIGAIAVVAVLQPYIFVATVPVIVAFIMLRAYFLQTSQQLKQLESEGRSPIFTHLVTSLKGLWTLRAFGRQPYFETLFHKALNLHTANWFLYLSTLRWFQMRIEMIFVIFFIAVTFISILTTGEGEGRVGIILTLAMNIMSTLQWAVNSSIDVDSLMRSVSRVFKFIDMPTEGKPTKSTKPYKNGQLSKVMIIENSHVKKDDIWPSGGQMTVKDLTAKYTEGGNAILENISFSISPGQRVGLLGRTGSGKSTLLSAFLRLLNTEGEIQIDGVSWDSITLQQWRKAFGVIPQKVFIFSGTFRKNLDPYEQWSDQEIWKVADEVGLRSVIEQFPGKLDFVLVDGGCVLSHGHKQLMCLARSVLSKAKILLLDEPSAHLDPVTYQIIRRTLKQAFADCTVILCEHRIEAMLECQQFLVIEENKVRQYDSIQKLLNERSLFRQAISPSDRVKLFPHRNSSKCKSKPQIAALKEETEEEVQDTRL

The EC50 is the concentration giving half of the maximal effect. Take `COc1ccc(C(C)(C)C)cc1CN[C@H]1[C@H](C(C)(C)C)[C@@H](C(=O)O)N(C(=O)C2Cc3ccccc3CO2)[C@H]1c1ccccc1` (some centres unmarked) [II-300]: the concentration for a half-maximal effect (EC50) was under 1000 nM under setting [1] and under 1000 nM under setting [2]. In addition, under setting [3], the “Maximum % activity (with co-corrector)” value is “+++ (≥350)”. For the same molecule, the Emax (CSE-HRP, without co-corrector) is over 200%.
Regarding `COc1cc(C)ccc1CN[C@H]1[C@H](C(C)(C)C)[C@@H](C(=O)O)N(C(=O)C2CCCCC2)[C@H]1c1cccnc1OC` [II-138], the EC50 under setting [1] is 1000 to 10000 nM and the concentration giving a half-maximal response (EC50) under setting [2] was 1000 to 10000 nM. The “Maximum % activity (with co-corrector)” value under setting [3] is “+++ (≥350)”. Moreover, the Emax (CSE-HRP, without co-corrector) was in the range of 100 to 200%.
As to `COc1ccc(C(C)(C)C)cc1CN[C@H]1[C@H](C(C)(C)C)[C@@H](C(=O)O)N(C(=O)C2CCCCC2)[C@H]1c1cccnc1N(C)C` [Example I-52], the half-maximal effective concentration (EC50) was under 1000 nM under setting [4] and under 1000 nM under setting [5]. Further, where the note is “with co-corrector (2 μM)”, the “Maximum % activity (with co-corrector)” value was “+++ (≥350)”. Moreover, the Emax (without co-corrector) was over 200%.
Consider `COc1cnc(C2CC3CCC2C3)cc1CN[C@H]1[C@H](C(C)(C)C)[C@@H](C(=O)O)N(C(=O)C2CCCCC2)[C@H]1c1ccccc1` (some centres unmarked) [II-403], for which, under setting [6], the Emax lay in the range of 100 to 200%. The half-maximal effective concentration (EC50) by setting is: under setting [4], 1000 to 10000 nM; under setting [5], 1000 to 10000 nM. Moreover, the “Maximum % activity (with co-corrector)” value under setting [7] is “+++ (≥350)”.
In the case of `COc1ccc(C(C)(C)C)cc1CN[C@H]1[C@H](C(C)(C)C)[C@@H](C(=O)O)N(C(=O)[C@H]2CCCO2)[C@H]1c1ccccc1` [II-322], the Emax under setting [6] lay in the range of 100 to 200%. For the same molecule, the concentration for a half-maximal effect (EC50) under setting [4] is 1000 to 10000 nM and the EC50 under setting [5] fell in the range of 1000 to 10000 nM. Besides, the “Maximum % activity (with co-corrector)” value under setting [7] is on record as “+++ (≥350)”.
Turning to `COc1ccc(C(C)(C)C)cc1CN[C@H]1[C@H](C(C)(C)C)[C@@H](C(=O)O)N(C(=O)[C@@H]2CCCO2)[C@H]1c1ccccc1C1CC1` [Example 108, (2S,3S,4S,5S)-3-tert-butyl-4-{[(5-tert-butyl-2-methoxyphenyl)methyl]amino}-5-(2-cyclopropylphenyl)-1-[(2S)-oxolane-2-carbonyl]pyrrolidine-2-carboxylic acid], the EC50 runs as follows: under setting [4], 1000 to 10000 nM; under setting [5], 1000 to 10000 nM. For the same molecule, for the setting “with co-corrector (2 μM)”, the “Maximum % activity (with co-corrector)” value is “+++ (≥350)”. In addition, for the setting “without co-corrector”, the Emax was over 200%.
Take `COc1ccc(C(C)(C)C)cc1CN[C@H]1[C@H](C(C)(C)C)[C@@H](C(=O)O)N(C(=O)Cc2cccc(F)c2F)[C@H]1c1ccccc1` [II-233]: the EC50 under setting [1] was in the range of 1000 to 10000 nM and the EC50 under setting [2] was under 1000 nM. The “Maximum % activity (with co-corrector)” value under setting [3] is “+++ (≥350)”. Where the note is “CSE-HRP, without co-corrector”, the Emax is over 200%.
On to `COc1ccccc1C1(CN[C@H]2[C@H](C(C)(C)C)[C@@H](C(=O)O)N(C(=O)OC(C)C)[C@H]2c2ccccc2)CCOCC1` [Example I-267], for which the EC50 is over 10000 nM under setting [1] and 1000 to 10000 nM under setting [2]. Under setting [3], the “Maximum % activity (with co-corrector)” value is given as “+ (<150)”. Also, the Emax (CSE-HRP, without co-corrector) is under 100%.
`CC(C)(C)[C@H]1[C@H](NCC2(c3cccc(Cl)c3)CCOCC2)[C@H](c2ccccc2)N(C(=O)C2CCCCC2)[C@@H]1C(=O)O` [Example 63, (2S,3S,4S,5S)-3-tert-butyl-4-({[4-(3-chlorophenyl)oxan-4-yl]methyl}amino)-1-(cyclohexanecarbonyl)-5-phenylpyrrolidine-2-carboxylic acid]: the concentration giving a half-maximal response (EC50) lay in the range of 1000 to 10000 nM under setting [4] and 1000 to 10000 nM under setting [5]. For the setting “with co-corrector (2 μM)”, the “Maximum % activity (with co-corrector)” value was “+++ (≥350)”. The Emax (without co-corrector) is under 100%.
As for `COc1ccc(C(F)(F)F)cc1CN[C@H]1[C@H](C(C)(C)C)[C@@H](C(=O)O)N(C(=O)[C@H](C)c2ccccc2)[C@H]1c1cccnc1OC` [II-541], the Emax under setting [6] fell in the range of 100 to 200%. Also, the EC50 was 1000 to 10000 nM under setting [4] and 1000 to 10000 nM under setting [5]. Besides, under setting [7], the “Maximum % activity (with co-corrector)” value is “+++ (≥350)”.
Take `COc1ncc(C2=CCOCC2)cc1CN[C@H]1[C@H](C(C)(C)C)[C@@H](C(=O)O)N(C(=O)C2CCCCC2)[C@H]1c1ccccc1` [II-349]: the Emax under setting [6] is under 100%. Besides, the EC50 under setting [4] was 1000 to 10000 nM and the EC50 under setting [5] is 1000 to 10000 nM. The “Maximum % activity (with co-corrector)” value under setting [7] was “+++ (≥350)”.
Regarding `COc1ccc(-c2ccccc2)cc1CN[C@H]1[C@H](C(C)(C)C)[C@@H](C(=O)O)N(C(=O)[C@@H]2CCC[C@@H](OC)C2)[C@H]1c1ccccc1` [Example I-78], the EC50 is 1000 to 10000 nM under setting [4] and under 1000 nM under setting [5]. Besides, the “Maximum % activity (with co-corrector)” value (with co-corrector (2 μM)) is “+++ (≥350)”. Further, the Emax (without co-corrector) was over 200%.
On to `COCCOc1ccc(C(F)(F)F)cc1CN[C@@H]1[C@@H](C(C)(C)C)[C@H](C(=O)O)N(C(=O)C2CCCCC2)[C@@H]1c1ccccc1` (racemic) [III-64], for which, under setting [6], the Emax was under 100%. Also, the half-maximal effective concentration (EC50) is, setting by setting: under setting [4], 1000 to 10000 nM; under setting [5], 1000 to 10000 nM. Besides, the “Maximum % activity (with co-corrector)” value under setting [7] is “++ (≥150 and <350)”.
For the molecule `CO[C@H](C(=O)N1[C@H](c2ccccc2)[C@H](Nc2cc(C(F)(F)F)cc(C)n2)[C@@H](C(C)(C)C)[C@@H]1C(=O)O)c1ccccc1` (relative stereo) [Example I-33], the EC50 was over 10000 nM under setting [4] and 1000 to 10000 nM under setting [5]. In addition, where the note is “with co-corrector (2 μM)”, the “Maximum % activity (with co-corrector)” value was “++ (≥150 and <350)”. Besides, the Emax (without co-corrector) is under 100%.
For the molecule `COc1ccc(C(F)(F)F)cc1CN[C@H]1[C@H](C(C)(C)C)[C@@H](C(=O)O)N(C(=O)C2CCC(C(F)(F)F)C2)[C@H]1c1ccccc1` (some centres unmarked) [Example I-163], the half-maximal effective concentration (EC50) by setting is: under setting [4], 1000 to 10000 nM; under setting [5], 1000 to 10000 nM. Further, the “Maximum % activity (with co-corrector)” value (with co-corrector (2 μM)) is “+++ (≥350)”. The Emax (without co-corrector) lay within 100 to 200%.
Take `COc1ccc(C23CC(C2)C3)cc1CN[C@H]1[C@H](C(C)(C)C)[C@@H](C(=O)O)N(C(=O)C2CCCCC2)[C@H]1c1cccnc1N(C)C` [II-520]: the Emax under setting [6] was over 200%. The EC50 was 1000 to 10000 nM under setting [4] and under 1000 nM under setting [5]. For the same molecule, under setting [7], the “Maximum % activity (with co-corrector)” value is “+++ (≥350)”.
Taken in the same sequence, the figures for `COc1ncc(-c2ccc(F)cc2C)cc1CN[C@H]1[C@H](C(C)(C)C)[C@@H](C(=O)O)N(C(=O)C2CCCCC2)[C@H]1c1ccccc1` [II-343] were 100 to 200%, under 1000 nM, under 1000 nM and “+++ (≥350)”.
Consider `COc1ccc(C(C)(C)C)cc1CN[C@H]1[C@H](C(C)(C)C)[C@@H](C(=O)O)N(C(=O)CC2(O)CCCCC2)[C@H]1c1ccccc1` [II-210], for which the EC50 lay within 1000 to 10000 nM under setting [1] and 1000 to 10000 nM under setting [2]. In addition, the “Maximum % activity (with co-corrector)” value under setting [3] was “+++ (≥350)”. Moreover, for the setting “CSE-HRP, without co-corrector”, the Emax is over 200%.
Regarding `COc1nc(C(C)(C)C)ccc1CN[C@H]1[C@H](C(C)(C)C)[C@@H](C(=O)O)N(C(=O)C2CCCCC2)[C@H]1c1ccccc1` [Example 29, (2S,3S,4S,5S)-3-tert-butyl-4-{[(6-tert-butyl-2-methoxypyridin-3-yl)methyl]amino}-1-(cyclohexanecarbonyl)-5-phenylpyrrolidine-2-carboxylic acid], the EC50 under setting [4] is under 1000 nM and the 50% effective concentration (EC50) under setting [5] is under 1000 nM. For the same molecule, the “Maximum % activity (with co-corrector)” value (with co-corrector (2 μM)) is “+++ (≥350)”. Further, the Emax (without co-corrector) was in the range of 100 to 200%.
Turning to `COc1ncc(C2CCC2)cc1CN[C@H]1[C@H](C(C)(C)C)[C@@H](C(=O)O)N(C(=O)C2CCCCC2C)[C@H]1c1ccccc1` (some centres unmarked) [III-208], under setting [6], the Emax is 100 to 200%. In addition, the EC50 is 1000 to 10000 nM under setting [4] and under 1000 nM under setting [5]. For the setting “with co-corrector (2 μM)”, the “Maximum % activity (with co-corrector)” value is on record as “+++ (≥350)”.
